Measured values as given in US20090312288A1 (TAKEDA PHARMACEUTICAL COMPANY LIMITED, priority 2008, published 2009).

molecular target: Aurora B/INCENP (Homo sapiens, UniProt Q96GD4); experiment: Determination of inhibition of AIK: Aurora B/INCENP direct fluorescence polarization (IMAP) assay; type: biochemical; conditions: 10 uM ATP, 0.8 nM Aurora B/INCENP; values given as bins; read-out: IC50 of Exemplified Compounds Against AIK B
Sequence (Q96GD4 whole entry): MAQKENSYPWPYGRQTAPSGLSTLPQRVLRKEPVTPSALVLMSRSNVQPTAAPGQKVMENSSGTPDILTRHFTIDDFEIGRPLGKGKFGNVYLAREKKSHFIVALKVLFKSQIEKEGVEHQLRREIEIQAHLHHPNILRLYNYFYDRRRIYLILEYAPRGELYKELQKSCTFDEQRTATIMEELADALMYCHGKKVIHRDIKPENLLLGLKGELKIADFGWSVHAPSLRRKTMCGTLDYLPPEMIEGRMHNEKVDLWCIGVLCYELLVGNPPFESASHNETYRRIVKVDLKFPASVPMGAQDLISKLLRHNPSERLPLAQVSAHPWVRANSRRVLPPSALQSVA
Sequence (Q9NQS7 whole entry partner): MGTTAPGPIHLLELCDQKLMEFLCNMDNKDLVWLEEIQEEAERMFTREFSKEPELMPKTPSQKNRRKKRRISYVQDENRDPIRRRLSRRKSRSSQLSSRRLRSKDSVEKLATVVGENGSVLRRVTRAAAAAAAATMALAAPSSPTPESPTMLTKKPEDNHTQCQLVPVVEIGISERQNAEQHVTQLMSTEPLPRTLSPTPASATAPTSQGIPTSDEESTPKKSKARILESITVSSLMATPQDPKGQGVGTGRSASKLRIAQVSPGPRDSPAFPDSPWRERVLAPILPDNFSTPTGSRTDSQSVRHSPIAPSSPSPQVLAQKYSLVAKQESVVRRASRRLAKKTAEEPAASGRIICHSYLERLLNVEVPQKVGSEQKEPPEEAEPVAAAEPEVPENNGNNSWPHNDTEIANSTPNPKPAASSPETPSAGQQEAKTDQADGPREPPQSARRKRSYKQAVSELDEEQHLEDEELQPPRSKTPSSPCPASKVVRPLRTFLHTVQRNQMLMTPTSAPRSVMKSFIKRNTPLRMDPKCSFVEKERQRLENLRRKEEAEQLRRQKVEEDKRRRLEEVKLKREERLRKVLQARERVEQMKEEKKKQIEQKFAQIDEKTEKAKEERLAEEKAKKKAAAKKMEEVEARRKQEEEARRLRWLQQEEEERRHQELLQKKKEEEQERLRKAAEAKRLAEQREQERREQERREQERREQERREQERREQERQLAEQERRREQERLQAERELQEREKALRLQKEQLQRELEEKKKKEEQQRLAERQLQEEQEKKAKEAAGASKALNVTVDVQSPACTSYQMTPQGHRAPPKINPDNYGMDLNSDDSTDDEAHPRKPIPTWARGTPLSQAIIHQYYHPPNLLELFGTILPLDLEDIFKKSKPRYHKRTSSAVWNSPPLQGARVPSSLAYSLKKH

SMILES	IC50 [nM]
COc1ccc(-c2cccc(S(=O)(=O)[C@@H]3CCNC3)c2)c2c1[nH]c1ncc(C)cc12 [Compound 160, (R)-8-methoxy-3-methyl-5-(3-(pyrrolidin-3-ylsulfonyl)phenyl)-9H-pyrido[2,3-b]indole]	5.6 to 8.5
Cc1cnc2[nH]c3c(OCCCN(C)C)ccc(-c4cccc(S(=O)(=O)C5CC5)c4)c3c2c1 [Compound 194, 3-(5-(3-(cyclopropylsulfonyl)phenyl)-3-methyl-9H-pyrido[2,3-b]indol-8-yloxy)-N,N-dimethylpropan-1-amine]	4 to 5.5
CCS(=O)(=O)c1cccc(-c2cc(C(=O)NCC(O)CO)c(C)c3[nH]c4ncc(C)cc4c23)c1 (stereo not shown) [Compound 102, N-(2,3-dihydroxypropyl)-5-(3-(ethylsulfonyl)phenyl)-3,8-dimethyl-9H-pyrido[2,3-b]indole-7-carboxamide]	4 to 5.5
CCSc1ncc(-c2cccc(NC(=O)C3CC3)c2)c2c1[nH]c1ncc(C)cc12 [Compound 79]	> 13
CCNS(=O)(=O)c1cccc(-c2ccc(OC)c3[nH]c4ncc(C)cc4c23)c1 [Compound 170, N-ethyl-3-(8-methoxy-3-methyl-9H-pyrido[2,3-b]indol-5-yl)benzenesulfonamide]	< 4
CCS(=O)(=O)c1cccc(-c2cnc(OCCOC(=O)[C@@H](N)C(C)C)c3[nH]c4ncc(C)cc4c23)c1 [Compound 64, L-Valine-2-[5-(3-ethanesulfonyl-phenyl)-3-methyl-9H-dipyrido[2,3-b;4′,3′-d]pyrrol-8-yloxy]-ethyl ester]	5.6 to 8.5
O=S(=O)(NC1CC1)c1cccc(-c2cccc3[nH]c4ncccc4c23)c1 [Compound 12, N-cyclopropyl-3-(9H-pyrido[2,3-b]indol-5-yl)benzenesulfonamide]	> 13
CCS(=O)(=O)c1cccc(-c2cnc(NC3CCN(C)CC3)c3[nH]c4ncc(C)cc4c23)c1 [Compound 44, [5-(3-Ethanesulfonyl-phenyl)-3-methyl-9H-dipyrido[2,3-b;4′,3′-d]pyrrol-8-yl]-(1-methyl-piperidin-4-yl)-amine]	8.6 to 13
CCS(=O)(=O)c1cccc(-c2cnc(OC[C@H](C)O)c3[nH]c4ncc(C)cc4c23)c1 [Compound 62, (S)-1-[5-(3-Ethanesulfonyl-phenyl)-3-methyl-9H-dipyrido[2,3-b;4′,3′-d]pyrrol-8-yloxy]-propan-2-ol]	4 to 5.5
CCS(=O)(=O)c1cccc(-c2cccc3[nH]c4ncccc4c23)c1 [Compound 9, 5-(3-(ethylsulfonyl)phenyl)-9H-pyrido[2,3-b]indole]	> 13
CCS(=O)(=O)c1cccc(-c2cnc(OCC(C)(C)O)c3[nH]c4ncc(C)cc4c23)c1 [Compound 58, 1-[5-(3-Ethanesulfonyl-phenyl)-3-methyl-9H-dipyrido[2,3-b;4′,3′-d]pyrrol-8-yloxy]-2-methyl-propan-2-ol]	8.6 to 13
CCS(=O)(=O)c1cccc(-c2ccc(OC(F)F)c3[nH]c4ncc(C)cc4c23)c1 [Compound 172, 8-(difluoromethoxy)-5-(3-(ethylsulfonyl)phenyl)-3-methyl-9H-pyrido[2,3-b]indole]	5.6 to 8.5
CCS(=O)(=O)c1cccc(-c2cnc(NC)c3[nH]c4ncc(C)cc4c23)c1 [Compound 74, 2-[5-(3-Ethanesulfonyl-phenyl)-3-methyl-9H-dipyrido[2,3-b;4′,3′-d]pyrrol-8-yl]methyl amine]	< 4
CCS(=O)(=O)c1cccc(-c2cnc(OC[C@H](O)CO)c3[nH]c4ncc(C)cc4c23)c1 [Compound 56]	< 4
CCNC(=O)c1cc(-c2cccc(S(=O)(=O)CC)c2)c2c(c1)[nH]c1ncc(C)cc12 [Compound 146, N-ethyl-5-(3-(ethylsulfonyl)phenyl)-3-methyl-9H-pyrido[2,3-b]indole-7-carboxamide]	5.6 to 8.5
CCS(=O)(=O)c1cccc(-c2ccc(OC[C@@H]3CCNC3)c3[nH]c4ncc(C)cc4c23)c1 [Compound 190, (R)-5-(3-(ethylsulfonyl)phenyl)-3-methyl-8-(pyrrolidin-3-ylmethoxy)-9H-pyrido[2,3-b]indole]	> 13
CCS(=O)(=O)c1cccc(-c2ccc(OC[C@H]3CCNC3)c3[nH]c4ncc(C)cc4c23)c1 [Compound 189, (S)-5-(3-(ethylsulfonyl)phenyl)-3-methyl-8-(pyrrolidin-3-ylmethoxy)-9H-pyrido[2,3-b]indole]	8.6 to 13
CCS(=O)(=O)c1cccc(-c2ccc(OC[C@@H]3CCCN3C)c3[nH]c4ncc(C)cc4c23)c1 [Compound 188, (S)-5-(3-(ethylsulfonyl)phenyl)-3-methyl-8-((1-methylpyrrolidin-2-yl)methoxy)-9H-pyrido[2,3-b]indole]	8.6 to 13

Results, then the molecule that gave them:

IC50 [nM]	SMILES
< 4	CCS(=O)(=O)c1cccc(-c2ccc(OCC3CCNCC3)c3[nH]c4ncc(Cl)cc4c23)c1 [Compound 201, 3-chloro-5-(3-(ethylsulfonyl)phenyl)-8-(piperidin-4-ylmethoxy)-9H-pyrido[2,3-b]indole]
5.6 to 8.5	CCS(=O)(=O)c1cccc(-c2ccc(OCCN3CCCC3)c3[nH]c4ncc(Cl)cc4c23)c1 [Compound 223, 3-chloro-5-(3-(ethylsulfonyl)phenyl)-8-(2-(pyrrolidin-1-yl)ethoxy)-9H-pyrido[2,3-b]indole]
> 13	CCS(=O)(=O)c1cccc(-c2ccc(OCCCn3cncn3)c3[nH]c4ncc(C)cc4c23)c1 [Compound 409, 8-(3-(1H-1,2,4-triazol-1-yl)propoxy)-5-(3-(ethylsulfonyl)phenyl)-3-methyl-9H-pyrido[2,3-b]indole]
< 4	CCN(CCO)CCCOc1ccc(-c2cccc(S(=O)(=O)C3CC3)c2)c2c1[nH]c1ncc(Cl)cc12 [Compound 298, 2-((3-(3-chloro-5-(3-(cyclopropylsulfonyl)phenyl)-9H-pyrido[2,3-b]indol-8-yloxy)propyl)(ethyl)amino)ethanol]
< 4	CCS(=O)(=O)c1cccc(-c2ccc(OCCCN3CCC(COP(=O)(O)O)CC3)c3[nH]c4ncc(C)cc4c23)c1 [Compound 449, (1-(3-(5-(3-(ethylsulfonyl)phenyl)-3-methyl-9H-pyrido[2,3-b]indol-8-yloxy)propyl)piperidin-4-yl)methyl dihydrogen phosphate]
> 13	CCS(=O)(=O)c1cccc(-c2ccc(OCCN(C)C)c3[nH]c4ncc(C)cc4c23)c1 [Compound 207, 2-(5-(3-(ethylsulfonyl)phenyl)-3-methyl-9H-pyrido[2,3-b]indol-8-yloxy)-N,N-dimethylethanamine]
< 4	O=S(=O)(c1cccc(-c2ccc(OCCN3CCC(O)CC3)c3[nH]c4ncc(Cl)cc4c23)c1)C1CC1 [Compound 325, 1-(2-(3-chloro-5-(3-(cyclopropylsulfonyl)phenyl)-9H-pyrido[2,3-b]indol-8-yloxy)ethyl)piperidin-4-ol]
4 to 5.5	CCS(=O)(=O)c1cccc(-c2ccc(OCCCN(C)C)c3[nH]c4ncc(C)cc4c23)c1 [Compound 206, 3-(5-(3-(ethylsulfonyl)phenyl)-3-methyl-9H-pyrido[2,3-b]indol-8-yloxy)-N,N-dimethylpropan-1-amine]
8.6 to 13	CCS(=O)(=O)c1cccc(-c2ccc(OCCCc3cccnc3)c3[nH]c4ncc(C)cc4c23)c1 [Compound 414, 5-(3-(ethylsulfonyl)phenyl)-3-methyl-8-(3-(pyridin-3-yl)propoxy)-9H-pyrido[2,3-b]indole]
> 13	CCS(=O)(=O)c1cccc(-c2ccc(OCCC#N)c3[nH]c4ncc(C)cc4c23)c1 [Compound 210, 3-(5-(3-(ethylsulfonyl)phenyl)-3-methyl-9H-pyrido[2,3-b]indol-8-yloxy)propanenitrile]
5.6 to 8.5	CCN(CCCOc1ccc(-c2cccc(S(=O)(=O)C3CC3)c2)c2c1[nH]c1ncc(C)cc12)CCOP(=O)(O)O [Compound 272, 2-((3-(5-(3-(cyclopropylsulfonyl)phenyl)-3-methyl-9H-pyrido[2,3-b]indol-8-yloxy)propyl)(ethyl)amino)ethyl dihydrogen phosphate]
8.6 to 13	CCS(=O)(=O)c1cccc(-c2ccc(OCC3CCCCO3)c3[nH]c4ncc(C)cc4c23)c1 (stereo not shown) [Compound 423, 5-(3-(ethylsulfonyl)phenyl)-3-methyl-8-((tetrahydro-2H-pyran-2-yl)methoxy)-9H-pyrido[2,3-b]indole]
4 to 5.5	CCN(CCCOc1ccc(-c2cccc(S(=O)(=O)CC)c2)c2c1[nH]c1ncc(C)cc12)CCOP(=O)(O)O [Compound 278, 2-(ethyl(3-(5-(3-(ethylsulfonyl)phenyl)-3-methyl-9H-pyrido[2,3-b]indol-8-yloxy)propyl)amino)ethyl dihydrogen phosphate]
> 13	COc1ccc(-c2cccc(C(=O)N3CCOCC3)c2)c2c1[nH]c1ncc(C)cc12 [Compound 259, (3-(8-methoxy-3-methyl-9H-pyrido[2,3-b]indol-5-yl)phenyl)(morpholino)methanone]
4 to 5.5	CCS(=O)(=O)c1cccc(-c2ccc(OCCN(C)C)c3[nH]c4ncc(Cl)cc4c23)c1 [Compound 222, 2-(3-chloro-5-(3-(ethylsulfonyl)phenyl)-9H-pyrido[2,3-b]indol-8-yloxy)-N,N-dimethylethanamine]
4 to 5.5	CCS(=O)(=O)c1cccc(-c2ccc(OCc3ccncc3)c3[nH]c4ncc(C)cc4c23)c1 [Compound 411, 5-(3-(ethylsulfonyl)phenyl)-3-methyl-8-(pyridin-4-ylmethoxy)-9H-pyrido[2,3-b]indole]
5.6 to 8.5	CCS(=O)(=O)c1cccc(-c2ccc(OCCCOC(=O)[C@H](C)N)c3[nH]c4ncc(C)cc4c23)c1 [Compound 227, (S)-3-(5-(3-(ethylsulfonyl)phenyl)-3-methyl-9H-pyrido[2,3-b]indol-8-yloxy)propyl 2-aminopropanoate]
< 4	Cc1cnc2[nH]c3c(OC[C@H]4CN(CCOP(=O)(O)O)CCO4)ccc(-c4cccc(S(=O)(=O)C5CC5)c4)c3c2c1 [Compound 375, (R)-2-(2-((5-(3-(cyclopropylsulfonyl)phenyl)-3-methyl-9H-pyrido[2,3-b]indol-8-yloxy)methyl)morpholino)ethyl dihydrogen phosphate]
> 13	Cc1cnc2[nH]c3c(OCCCN(CCO)CC(F)F)ccc(-c4cccc(S(=O)(=O)C5CC5)c4)c3c2c1 [Compound 341, 2-((3-(5-(3-(cyclopropylsulfonyl)phenyl)-3-methyl-9H-pyrido[2,3-b]indol-8-yloxy)propyl)(2,2-difluoroethyl)amino)ethanol]
